From US11945881B2, “Neoantigens expressed in ovarian cancer and their uses” (Janssen Biotech, Inc., priority 2020, dated 2024)

How the values were obtained:
CD4+ T cells = assay: exogenous autologous normal donor restimulation assay, TNFα/IFNγ double positive CD4+ T cells by flow cytometry; assay type: cell-based, human; conditions: donor independent, peptide pool 10 μg/mL, healthy donors; for Fold change (CD4+) vs. DMSO: maximum CD4+ T-cell response (TNFα and IFNγ); for Frequency (TNFα + IFNγ + CD4 T cells): maximum CD4+ T-cell response
Experimental: (§1) The immunogenicity of neoantigens was assessed using the exogenous autologous normal donor restimulation assay. […] The lyophilized peptides were solubilized in 100% DMSO.
(§2) CD1c+ Dendritic Cells (CD1c+DC) isolated from human healthy PBMCs were thawed using media (IMDM (Gibco) supplemented with glutamine, HEPES, 5% human serum (Sigma), and 1× Pen-Strep). DC cells were resuspended in media supplemented with IL-4 (Peprotech, 20 ng/mL) and GM-CSF (Gibco, 20 ng/mL), plated in 6 well microplates, and rested overnight at 37° C. and 5% CO2 incubator. The following day, DC cells were counted and plated in a 96 well round bottom microplate at a concentration of 30,000 viable cells per well. Lyophilized neoantigen peptide pools (15-mer peptides with 8-mer overlapping peptide sequences) were solubilized in 100% DMSO with a stock concentration of 20 mg/mL Neoantigen peptides pools were added to DCs for a final concentration of 10 μg/mL and rested for 2 hours at 37° C. and 5% CO2 incubator. CEF Peptide Pool “Plus” (Cellular Technologies, Ltd.) was utilized as a positive control (each viral peptide at a final concentration of 4 ug/ml) and DMSO at the same final concentration (0.05%) as the experimental peptides was utilized as a negative control. After 2 hours, DC cells were irradiated with 50 gray of ionizing radiation. Autologous CD3+ Pan-T cells isolated from human normal PBMCs were thawed using media. Following irradiation, autologous Pan-T cells were added to the irradiated DCs at 300,000 viable cells per well. Human IL-15 (Peprotech) was added to all wells at final concentration of 10 ng/ml. Plates were incubated at 37° C. and 5% CO2 incubator for a total of 12 days. Media was refreshed every 2-3 days with IL-15 (R&D System, 10 ng/mL final concentration) and IL-2 (R&D systems, 10 IU/mL final concentration).
(§3) On Day 11, cells were re-stimulated with identical experimental peptide pools or controls, at same concentration as peptide stimulation on Day 1. Protein Inhibitor Cocktail (eBioscience) was added to every well and plate was incubated overnight for 14-16 hours at 37° C. and 5% CO2 incubator. On Day 12, cells were stained for surface and intracellular flow cytometry analysis. The cells were washed with PBS and stained with Live/Dead Fixable Aqua Dead Cell stain (Thermo-Fisher). Following the live/dead stain, cells were blocked using Biotin-Fre Fc Receptor Blocker (Accurate Chemical & Scientific Corp). Extracellular cellular flow panel ([…] per well in 50 μL) consisted of CD3 PerCP-Cy5.5 (Biolegend), CD4 BV421 (Biolegend), and CD8 APC-Cy7 (Biolegend). After extracellular staining, cells were fixed and permeabilized using Foxp3/Transcription Factor Staining Buffer Set (eBioscience) and stained for intracellular proteins (1:50 dilution) using TNFα FITC (R&D Systems) and IFNγ BV785 (Biolegend). Cells were washed and resuspended in stain buffer, analyzed, and recorded in a BD Celesta flow cytometer.
(§4) Flow cytometry analysis was conducted on FlowJo v10.6 software. Cells were gated on live, singlet, CD3+, CD4+ and CD8+ T cells. The CD8+ and CD4+ T cells were analyzed for TNFα and IFNγ expression.
(§5) The immunogenicity of neoantigens was first investigated in 9-16 healthy donors.

CD8+ T cells = assay: exogenous autologous normal donor restimulation assay, TNFα/IFNγ double positive CD8+ T cells by flow cytometry; assay type: cell-based, human; conditions: for Fold change (CD8+) vs. DMSO: maximum CD8+ T-cell response (TNFα and IFNγ); for Fold change (CD8+) vs. DMSO / Frequency (TNFα + IFNγ + CD8 T cells): donor independent, peptide pool 10 μg/mL, healthy donors; for Frequency (TNFα + IFNγ + CD8 T cells): maximum CD8+ T-cell response; for Immunogenic (yes/no): positive if CD8+ and/or CD4+ double positive TNFα/IFNγ frequency >=3-fold over DMSO and at least 0.01%
Experimental: as §1, §2, §3, §4, §5

Sequence	Fold change (CD4+) vs. DMSO (CD4+ T cells)	Frequency (TNFα + IFNγ + CD4 T cells) (CD4+ T cells)	Fold change (CD8+) vs. DMSO (CD8+ T cells)	Frequency (TNFα + IFNγ + CD8 T cells) (CD8+ T cells)	Immunogenic (yes/no) (CD8+ T cells)
PSPSTPNHSQQAICHPGRRP [AS105, neoantigen, alternative splicing of MPRIP]	14.72 fold	0.14%	1.76 fold	0.02%	Yes
GFILIGWGAGNLVLETSSGFIKHRS [AS69, neoantigen, alternative splicing of PTH2R]	9.21 fold	0.011%	260.42 fold	1%	Yes
CLRPSLSLASRGFQNP [AS88, neoantigen, alternative splicing of UPK3B]	15.85 fold	0.062%	3.13 fold	0.063%	Yes
VLTVTSTDQEYLDLSAP [AS44, neoantigen, alternative splicing of FGFR3]	13.45 fold	0.067%	85.94 fold	0.33%	Yes
EEDREKYRWMAPFVPGQVWTWEYFL [AS28, neoantigen, alternative splicing of HYDIN]	12.43 fold	0.17%	8.82 fold	0.15%	Yes
KRPMASEVSFILIQWLLKP [AS146, neoantigen, alternative splicing of PIP5K1A]	8.88 fold	0.037%	24.2 fold	0.26%	Yes
MSQESDKNGLSSRSWMNTWILPEVL [AS102, neoantigen, alternative splicing of GRHL2]	4.47 fold	0.029%	5.65 fold	0.096%	Yes
IGKGSFGKFLEDATHMV [AS36, neoantigen, alternative splicing of STK32C]	3.36 fold	0.04%	7.44 fold	0.45%	Yes
GGLTLGARNTLTHGSPGPSQATVAVAPLSGRAAVSAAGGCVFLLLPACVPRRCHWIP [FUS16, neoantigen, gene fusion NDUFA11->FUT5]	12.58 fold	0.045%	261.6 fold	5.69%	yes
PSLSTRLTSKDPQPLQSHYWGLIGNDPFLRSKKRVN [AS4, neoantigen, alternative splicing of MUC16]	11.53 fold	0.093%	7.55 fold	0.068%	Yes
NYGNLFSLAGSLHFTA [AS89, neoantigen, alternative splicing of ZNF727]	7.02 fold	0.061%	142.04 fold	0.26%	Yes
LEEEFISEWRRCLLCSYLQW [AS63, neoantigen, alternative splicing of IMPG2]	13.54 fold	0.15%	185.74 fold	0.5%	Yes
KNFITCFKGGHASAAEPRKGR [FUS22, neoantigen, gene fusion C8orf82->LRRC24]	8.67 fold	0.31%	8.05 fold	0.087%	Yes
YCKNDFFRSLPCHLL [AS16, neoantigen, alternative splicing of LHX1]	5.43 fold	0.011%	2.88 fold	0.062%	Yes
VEDEEKKEAGTHFIHLTGTTVSAGVPEEMPATTLRREVF [AS91, neoantigen, alternative splicing of ACIN1]	36.02 fold	0.23%	46.44 fold	0.21%	Yes
LDLAGNARPCRSQSPTSSDQTPSVPSLGSPELPDGEEGGSPDGSPQESEQVRQGQHV [AS103, neoantigen, alternative splicing of GTF2IRD1]	6.62 fold	0.086%	48.82 fold	0.83%	Yes
GDPAKVVEIPRLL [AS31, neoantigen, alternative splicing of MECR]	6.91 fold	0.016%	4.54 fold	0.045%	Yes
VIPGDLSEAHGYSFS [AS5, neoantigen, alternative splicing of PLAG1]	17.14 fold	0.18%	2.41 fold	0.017%	Yes
TRSLDDLEKLDTLCCKLSVHVT [AS33, neoantigen, alternative splicing of RGS12]	32.24 fold	0.28%	6958.6 fold	43.7%	Yes
SISLTDDEAELPLLDL [AS77, neoantigen, alternative splicing of EP400]	20.73 fold	0.18%	6.59 fold	0.12%	Yes
